Assay: refractive index (Na D-line) (dimensionless); xn = mol fraction of the nth substance listed
Details: 100 kPa, Liquid, Standard Abbe refractometry

O=C1OCCO1 [ethylene carbonate] + CCn1cc[n+](C)c1.[Br-]
refractive index
Details | x1 = 0.106 | x1 = 0.222 | x1 = 0.2945 | x1 = 0.3671 | x1 = 0.4655 | x1 = 0.6002 | x1 = 0.7142 | x1 = 0.7981 | x1 = 0.8946
298.2 K | 1.5505 | 1.5405 | 1.531 | 1.5245 | 1.5105 | 1.498 | 1.4835 | 1.4695 | 1.45
308.2 K | 1.548 | 1.5385 | 1.529 | 1.5235 | 1.5085 | 1.4955 | 1.481 | 1.466 | 1.445
318.2 K | 1.5455 | 1.5345 | 1.5275 | 1.52 | 1.5065 | 1.493 | 1.4775 | 1.4635 | 1.4425

O=C1OCCO1 [ethylene carbonate] + O
Details | refractive index
298.2 K, x2 = 0.0993 | 1.4205
298.2 K, x2 = 0.1962 | 1.4175
298.2 K, x2 = 0.2943 | 1.414
298.2 K, x2 = 0.3321 | 1.4125
298.2 K, x2 = 0.4172 | 1.4085
298.2 K, x2 = 0.4758 | 1.4055
298.2 K, x2 = 0.5337 | 1.401
298.2 K, x2 = 0.5766 | 1.399
298.2 K, x2 = 0.6159 | 1.397
298.2 K, x2 = 0.6887 | 1.391
298.2 K, x2 = 0.7258 | 1.386
298.2 K, x2 = 0.7789 | 1.3805
298.2 K, x2 = 0.8239 | 1.375
298.2 K, x2 = 0.881 | 1.364
298.2 K, x2 = 0.9186 | 1.356
298.2 K, x2 = 0.9593 | 1.345
298.2 K, x2 = 0.9778 | 1.34
308.2 K, x2 = 0.0993 | 1.417
308.2 K, x2 = 0.1962 | 1.4145
308.2 K, x2 = 0.2943 | 1.411
308.2 K, x2 = 0.3321 | 1.409
308.2 K, x2 = 0.4172 | 1.4055
308.2 K, x2 = 0.4739 | 1.4015
308.2 K, x2 = 0.5337 | 1.3985
308.2 K, x2 = 0.5753 | 1.3955
308.2 K, x2 = 0.6159 | 1.3925
308.2 K, x2 = 0.688 | 1.3875
308.2 K, x2 = 0.725 | 1.381
308.2 K, x2 = 0.7785 | 1.3765
308.2 K, x2 = 0.8234 | 1.3705
308.2 K, x2 = 0.8807 | 1.361
308.2 K, x2 = 0.9183 | 1.354
308.2 K, x2 = 0.9591 | 1.3435
308.2 K, x2 = 0.9777 | 1.3385
318.2 K, x2 = 0.0993 | 1.414
318.2 K, x2 = 0.1962 | 1.4105
318.2 K, x2 = 0.2943 | 1.4075
318.2 K, x2 = 0.3321 | 1.406
318.2 K, x2 = 0.4172 | 1.4015
318.2 K, x2 = 0.473 | 1.3985
318.2 K, x2 = 0.5315 | 1.395
318.2 K, x2 = 0.5744 | 1.3925
318.2 K, x2 = 0.6147 | 1.3895
318.2 K, x2 = 0.6871 | 1.384
318.2 K, x2 = 0.7243 | 1.3785
318.2 K, x2 = 0.7779 | 1.374
318.2 K, x2 = 0.8228 | 1.368
318.2 K, x2 = 0.8803 | 1.3585
318.2 K, x2 = 0.9181 | 1.3505
318.2 K, x2 = 0.959 | 1.3425
318.2 K, x2 = 0.9777 | 1.337
